Measurements as given in patent US20100022559A1, “BISOXIMES AS FUNGICIDES” (BAYER CROPSCIENCE AG, priority 2006, published 2010).
Blank lines part the entries; values can stand above or below the molecule they belong to.

Experiment: logP determination by HPLC on a reversed-phase column (C 18), EEC Directive 79/831 Annex V.A8
Format: physicochemical
Method: The stated logP values were determined in accordance with EEC Directive 79/831 Annex V.A8 by HPLC (high performance liquid chromatography) on a reversed-phase column (C 18). Temperature: 43° C.

[1] = method marker [a] (footnote not shown), isomer A / isomer B / isomer mixture as noted in the cell
[2] = method marker [b], isomer A / isomer B / isomer mixture as noted in the cell

SMILES: CC(=NOCCCON=C(C)c1csc(Cl)n1)c1csc(Cl)n1 (mixture of isomers) [compound 232]
logP [1]: 4.69^[a]

SMILES: CC(=NOCC(C)CON=C(C)c1cccc(NCC2CC2)n1)c1cccc(NCC2CC2)n1 (stereo not shown) [Compound 791]
logP (value marked [a]): 1.95^[a]

SMILES: CC(=NOCC(C)(C)CON=C(C)c1cccc(Cc2ccccc2)n1)c1cccc(Cc2ccccc2)n1 [Compound 798]
logP (value marked [a]): 7.36^[b][a]
logP (value marked [b]): 7.36^[b]

SMILES: CC(=NOCCCC(=O)ON=C(C)c1cccc(C)n1)c1cccc(C)n1 [compound 171]
logP [1]: 2.44^[a]

SMILES: C=CCCC(=NOCCCON=C(CCC=C)c1ncccc1C)c1ncccc1C [compound 129]
logP [1]: 4.59^[a]

SMILES: C=C(CON=C(N)c1cc(C)cc(C)c1)CON=C(C)c1cccc(C)n1 [compound 185]
logP [2]: 3.17^[b]

SMILES: CC[Si](CC)(CON=C(C)c1cc(C)cc(C)n1)CON=C(C)c1cc(C)cc(C)n1 [Compound 787]
logP (value marked [a]): 5.05^[a]
logP (value marked [b]): 5.05^[b]
logP (value marked [c]): 7.36^[c]

SMILES: CC(=NOCC(C)CON=C(C)c1cc(C(C)(C)C)ccn1)c1cc(C(C)(C)C)ccn1 (stereo not shown) [compound 104]
logP [1]: 5.88^[a]

SMILES: C=C(CON=C(C)c1cccc(C)n1)CON=C(C)c1c(C)noc1C [compound 198]
logP [2]: 3.50^[b]

SMILES: C=C(CON=C(C)c1cccc(C)n1)CON=C(CCC)c1cccc(C)n1 [compound 355]
logP (value marked [b]): 4.87^[b]

SMILES: CC(=NOCC(CON=C(C)c1cc(C)cc(C)n1)C(C)(C)C)c1cc(C)cc(C)n1 (stereo not shown) [Compound 559]
logP (method marked [b] in Table 1): 3.60^[b]
logP (method marked [c] in Table 1): 7.36^[c]

SMILES: C=C(CON=C(C)c1ccc(Br)nc1)CON=C(C)c1ccc(Br)nc1 [compound 151]
logP [2]: 4.56^[b]

SMILES: CC(=NOCCCON=C(C)c1ccccn1)c1ccccn1 [compound 31]
logP [2]: 2.67^[b]

SMILES: CC(=NOCC1(CON=C(C)c2cccc(C)n2)CC(c2ccccc2)=NO1)c1cccc(C)n1 (stereo not shown) [Compound 593]
logP (method marked [a] in Table 1): 3.74^[a]

SMILES: CCC(=NOCCCON=C(C)c1cccc(C)n1)c1ncccc1C [compound 156]
logP [2]: 3.28^[b]

SMILES: C=C(CON=C(C)c1cccc(C)n1)CON=C(C)c1cc(OC)cc(C)n1 (single isomer, unassigned) [Compound 476]
logP (value marked [b]): 3.33^[b] (isomer B)

SMILES: CC(=NOCC(C)(C)CON=C(C)c1ncccc1C)c1cccc(C)n1 [compound 490]
logP (value marked [b]): 3.89^[b]

SMILES: Cc1cccnc1C(Cc1ccccc1)=NOCCCON=C(Cc1ccccc1)c1ncccc1C (single isomer, unassigned) [compound 96]
logP [1]: 5.54^[a] (isomer B)

SMILES: CC(=NOCCCON=C(C)c1ncc(Cl)cc1Cl)c1ncc(Cl)cc1Cl [compound 56]
logP [2]: 5.78^[b]

SMILES: CC(=NOCC(C)CON=C(C)c1cccc(C)n1)c1ccc2c(c1)OCO2 (stereo not shown) [compound 435]
logP (value marked [b]): 4.57^[b]

SMILES: CC(=NOCC(CON=C(C)c1ccc(C)c(C)n1)C(C)C)c1ccc(C)c(C)n1 (stereo not shown) [Compound 681]
logP (method marked [b] in Table 1): 4.57^[b]
logP (method marked [c] in Table 1): 7.18^[c]

SMILES: CC(=NOCC1(CON=C(C)c2cccc(C3CC3)n2)CC1)c1cccc(C2CC2)n1 [Compound 848]
logP (value marked [a]): 7.36^[a]

SMILES: Cc1cc(C)nc(C(N)=NOC/C=C/CON=C(N)c2nc(C)cc(C)n2)n1 [Compound 772]
logP (value marked [b]): 1.62^[b]

SMILES: CC(=NOCC(C)CON=C(C)c1cccnc1C)c1cccc(C)n1 (stereo not shown) [compound 500]
logP (value marked [b]): 1.85^[b]

SMILES: C=C(CON=C(C)c1cccc(C)n1)CON=C(C)c1cccc(CCC)n1 [Compound 477]
logP (value marked [b]): 5.42^[b]

SMILES: C=C(CON=C(C)c1cccs1)CON=C(C)c1nccs1 [compound 78]
logP [2]: 4.31^[b]

SMILES: CCOC(=O)C(=NOCCCON=C(C(=O)OCC)c1cccc(C)n1)c1cccc(C)n1 [compound 76]
logP [1]: 4.31^[a]

SMILES: CC(=NOCCCCCCON=C(C)c1cccc(C)n1)c1ccc(Cl)cc1 [compound 458]
logP (value marked [b]): 6.58^[b]

SMILES: CC(=NOCC(C)CON=C(C)c1cccc(C)n1)c1ccc(Cl)cc1 (stereo not shown) [compound 496]
logP (value marked [b]): 5.78^[b]

SMILES: CCCC(=NOCC(C)CON=C(CCC)c1cccc(C)n1)c1cccc(C)n1 (stereo not shown) [Compound 112]
logP [1]: 6.61^[a]

SMILES: CC(=NOCC(C)(C)CON=C(C)c1cc(C)cc(C)n1)c1cccc(C)n1 [Compound 487]
logP (value marked [b]): 3.33^[b]

SMILES: C=C(CON=C(C)c1cccc(C)n1)CON=C(N)c1ncc(C(F)(F)F)cc1Cl [compound 245]
logP [2]: 3.50^[b]

SMILES: C=C(CON=C(C)c1cccc(C)n1)CON=C(N)c1nc(C)c(C)c(C)n1 [compound 191]
logP [2]: 2.13^[b]

SMILES: C/C(=N\OCCCON)c1cccc(C)n1 [XII-10]
logP ([a] acidic range, pH 2.3, 0.1% aqueous phosphoric acid and acetonitrile): 0.27^[a]
logP ([b] LC-MS, acidic range, pH 2.7, 0.1% aqueous formic acid and acetonitrile): 0.27^[b]
logP ([c] LC-MS, neutral range, pH 7.8, 0.001 molar aqueous ammonium bicarbonate solution and acetonitrile): 1.72^[c]

SMILES: CCC(=NOCCCON=C(CC)c1cccc(C)n1)c1cccc(C)n1 [Compound 90]
logP [1]: 4.44^[a]

SMILES: Cc1nc(/C(N)=N/OCO/N=C(\N)c2nc(C)c3c(n2)CCCC3)nc2c1CCCC2 [compound 39]
logP [2]: 2.29^[b]

SMILES: C=C(CON=C(C)c1ccc(C)nc1)CON=C(C)c1ccc(C)nc1 [compound 22]
logP [2]: 1.37^[b]

SMILES: CC(=NOCCCON=C(C)c1sc(C)nc1C)c1sc(C)nc1C [compound 54]
logP [2]: 3.10^[b]

SMILES: CC(=NOCCCON=C(C)c1cccc(C(F)F)n1)c1cccc(C(F)F)n1 [compound 521]
logP (value marked [a]): 5.21^[a]

SMILES: COc1cc(C)nc(C(C)=NOCC2(CON=C(C)c3cc(OC)cc(C)n3)CC2)c1 [Compound 816]
logP (value marked [a]): 1.34^[a]
logP (value marked [c]): 4.94^[c]

SMILES: C=C(CON=C(C)c1ccnc(C)c1)CON=C(C)c1cccc(C)n1 (single isomer, unassigned) [compound 362]
logP (value marked [b]): 1.71^[b] (isomer B)

SMILES: CC(=NOCC(C)CON=C(C)c1cccc(C(C)C)n1)c1cccc(C)n1 (stereo not shown) [Compound 504]
logP (value marked [b]): 6.29^b]

SMILES: CC(=NOCCCCCCON=C(C)c1cccc(Cc2ccccc2)n1)c1cccc(C)n1 [compound 340]
logP (value marked [b]): 6.86^[b]

SMILES: CC(=NOCCCON=C(C)c1cc(-c2ccccc2)ccn1)c1cc(-c2ccccc2)ccn1 [compound 132]
logP [1]: 5.74^[a]

SMILES: C=C(CON=C(C)c1cccc(C)n1)CON=C(C)c1cccc(OC)n1 [compound 207]
logP [2]: 4.82^[b]

SMILES: CC(=NOCCON=C(C)c1nc(C)c(C)s1)c1nc(C)c(C)s1 [compound 50]
logP [2]: 4.35^[b]

The remaining lines, values ahead:

logP (method marked [b] in Table 1): 4.67^[b]
SMILES: CCC(=NOCC1(CON=C(CC)c2cccc(C)n2)CC(C(C)C)=NO1)c1cccc(C)n1 (stereo not shown) [compound 606]

logP (method marked [b] in Table 1): 3.41^[b]
SMILES: Cc1nc(/C(N)=N/OCc2ccccc2CO/N=C(\N)c2nc(C)c(Cl)c(C)n2)nc(C)c1Cl [compound 709]

logP (value marked [b]): 4.62^[b]
logP (value marked [c]): 5.09^[c]
SMILES: CC(=NOc1nc(Cl)nc(ON=C(C)c2cccc(C)n2)c1Cl)c1cccc(C)n1 (single isomer, unassigned) [compound 779]

logP (method marked [b] in Table 1): 6.58^[b]
SMILES: CCCC(=NOCC1(CON=C(CCC)c2cccc(C)n2)CC(c2cccc(Cl)c2)=NO1)c1cccc(C)n1 (stereo not shown) [compound 624]

logP (value marked [a]): 4.17^[a]
SMILES: Cc1cc(C)nc(C(Cl)=NOCC(C)CON=C(Cl)c2cc(C)cc(C)n2)c1 (stereo not shown) [compound 833]

logP (method marked [b] in Table 1): 6.6^[b]
SMILES: C=Cc1cccc(C(C)=NOCC(C)CON=C(C)c2cccc(C=C)n2)n1 (stereo not shown) [compound 685]

logP (value marked [b]): 4.61^[b]
logP (value marked [c]): 4.52^[c]
SMILES: CC(=NOCC(C)(C)CON=C(c1ccccc1)c1cccc(C)n1)c1cccc(C)n1 (single isomer, unassigned) [compound 879]

logP (method marked [b] in Table 1): 2.13^[b]
logP (method marked [c] in Table 1): 4.03^[c]
SMILES: CC(=NOCCC(C)ON=C(C)c1nc(C)ccc1C)c1nc(C)ccc1C (single isomer, unassigned) [compound 758]

logP (value marked [b]): 6.03^[b](isomer B)
SMILES: CC(=NOCCCCCCON=C(c1cccc(C)n1)C(C)C)c1cccc(C)n1 (single isomer, unassigned) [compound 527]

logP (method marked [a] in Table 1): 4.10^[a] (isomer A)
SMILES: Cc1cccc(C(=NOCC(C)CON=C(c2ccccc2)c2cccc(C)n2)c2ccccc2)n1 (single isomer, unassigned) [compound 661]

logP (method marked [b] in Table 1): 4.15^[b]
logP (method marked [c] in Table 1): 6.01^[c]
SMILES: CC(=NOCC(CON=C(C)c1nc(C)ccc1C)Cc1ccccc1)c1nc(C)ccc1C (stereo not shown) [compound 590]

logP (value marked [b]): 2.70^[b]
SMILES: Cc1nc(C(N)=NOC/C=C/CON=C(N)c2nc(C)c(Cl)c(C)n2)nc(C)c1Cl [compound 774]

logP (method marked [b] in Table 1): 3,59^[b]
SMILES: Cc1cc(C)nc(/C(N)=N/OCc2ccc(CO/N=C(\N)c3cc(C)cc(C)n3)cc2)c1 [compound 733]

logP (value marked [a]): 7.36^[a]
logP (value marked [c]): 7.36^[c]
SMILES: CC(=NOCC(C)CON=C(C)c1cc(Cl)cc(C)n1)c1cc(Cl)cc(C)n1 (stereo not shown) [compound 792]

logP (method marked [b] in Table 1): 5.71^[b]
SMILES: CCCC(=NOCC1(CON=C(CCC)c2cccc(C)n2)CC(C(C)C)=NO1)c1cccc(C)n1 (stereo not shown) [compound 616]

logP (method marked [a] in Table 1): 7.36^[a]
SMILES: CC(=NOCC(C)(C)CON=C(C)c1cccc(-c2ccc(Cl)c(C(F)(F)F)c2)n1)c1cccc(-c2ccc(Cl)c(C(F)(F)F)c2)n1 [compound 577]

logP (value marked [a]): 7.36^[a]
SMILES: CC(=NOCC(C)(C)CON=C(C)c1cc(Cl)cc(C)n1)c1cc(Cl)cc(C)n1 [compound 804]

logP (value marked [b]): 2.47^[b]
logP (value marked [c]): 3.84^[c]
SMILES: CCOC(=O)C(C)(CON=C(C)c1nc(C)ccc1C)CON=C(C)c1nc(C)ccc1C (stereo not shown) [compound 884]

logP (method marked [b] in Table 1): 3.72^[b]
SMILES: Cc1cc(C)nc(/C(N)=N/OCc2ccccc2CO/N=C(\N)c2cc(C)cc(C)n2)c1 [compound 724]

logP (value marked [a]): 7.36^[a]
SMILES: CC(=NOCC(C)(C)CON=C(C)c1cccc(C2CC2)n1)c1cccc(C2CC2)n1 [compound 814]

logP (method marked [b] in Table 1): 2.55^[b]
SMILES: CC(=NOCC1(CON=C(C)c2cc(C)cc(C)n2)CC(c2ccccc2)=NO1)c1cc(C)cc(C)n1 (stereo not shown) [compound 643]

logP (method marked [b] in Table 1): 5.71^[b]
SMILES: CC(=NOCc1ccccc1CON=C(C)c1nc(C)c(C)s1)c1nc(C)c(C)s1 [compound 730]

logP (value marked [b]): 2.84^[b]
SMILES: CC(=NOC/C=C/CON=C(C)c1ccccn1)c1ccccn1 [compound 781]

logP (method marked [b] in Table 1): 7.36^[b]
logP (method marked [c] in Table 1): 7.36^[c]
SMILES: C=C(CON=C(C)c1ccc2ccc(C)cc2n1)CON=C(C)c1ccc2ccc(C)cc2n1 [compound 749]
